In patent US11267842B2, “Enzymatic modification of nucleic acids” (The Regents of the University of California, priority 2015, dated 2022):

Tests used:
[1] = test system: mCherry-TAG RNA endogenously expressed in CHO cells; assay: Fixed cell labeling of endogenously expressed mCherry-TAG transcript; format: cell-based, Chinese hamster; conditions: 50 μM PreQ1-Cy7, with TGT and mCherry-TAG plasmid vs controls without (FIG. 4)
Experimental: Fixed Cell Labeling of Endogenously Expressed mCherry-ECY-A1 Transcript. Chinese Hamster Ovary (CHO) cells (CRL-9606, ATCC, Manassas, Va.) were cultured in Ham's F-12K media (Life Technologies, Carlsbad, Calif.) and kept under 20 passages from the ATCC standard line. CHO cells were plated at an initial density of 10,000 cells per well in a Nunc Lab-Tek 8 well chamber slide (Thermo Scientific, Waltham, Mass.). Cells were allowed to adhere overnight and washed with Opti-MEM media (Life Technologies, Carlsbad, Calif.) and subsequently transfected with […] of mCherry-TAG plasmid per well with 1.5 μL of Lipofectamine® 2000 (Life Technologies, Carlsbad, Calif.) in Opti-MEM as per manufacture's protocol. Control wells lacking transfection were treated and washed with Opti-MEM in the absence of DNA and lipofectamine®. After overnight transfection, the cells were washed twice with PBS (200 μL each) and fixed with 100 μL of a 3.7% paraformaldehyde in PBS solution for 10 minutes at room temperature. Cells were then permeabilized by treatment with 100 μL of 0.1% Triton X-100 in PBS for 20 minutes at room temperature and washed 2×200 μL with fresh PBS. Cells were then treated for four hours at 37° C. with 100 μL of TGT reaction buffer containing 50 μM PreQ1-Cy7 either with or without 10 μM TGT enzyme added. […] Images were subsequently analyzed and processed using ImageJ (NIH, rsbweb.nih.gov).

[2] = biological target: T1, bacterial (E.coli) tRNA guanine transglycosylase (TGT) (Escherichia coli, UniProt P0A847); format: biochemical; conditions: TGT present; 4% denaturing PAGE (FIG. 3A, FIG. 7)
T1 construct: His6 (C); made in house; host or cells: E. coli BL21
T1 sequence (P0A847 whole entry, added parts left off): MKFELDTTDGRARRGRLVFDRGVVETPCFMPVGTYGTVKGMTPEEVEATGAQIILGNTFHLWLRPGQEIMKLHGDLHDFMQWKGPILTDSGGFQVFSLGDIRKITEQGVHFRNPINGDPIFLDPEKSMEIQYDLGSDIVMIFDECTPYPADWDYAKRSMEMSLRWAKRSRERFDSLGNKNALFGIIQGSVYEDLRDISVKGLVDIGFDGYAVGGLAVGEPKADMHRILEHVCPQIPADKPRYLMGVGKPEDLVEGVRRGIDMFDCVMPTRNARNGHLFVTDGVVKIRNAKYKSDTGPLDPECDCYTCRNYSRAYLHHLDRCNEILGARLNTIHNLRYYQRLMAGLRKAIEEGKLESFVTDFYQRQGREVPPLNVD
Experimental: General labeling reaction procedure for fluorescence spectra and gel analysis. A 25 μL reaction was setup in a small eppendorf tube containing 100 nM RNA transcript, 50 μM PreQ1 analog, and 1μM TGT in TGT reaction buffer. 1 unit of RNaseln (Promega, Madison, Wis.) was added to each reaction to prevent degradation of the transcript. The reaction was allowed to proceed for 4 hours, after which the sample was cooled to 4° C. and either used directly or stored at −80° C. until further analyzed.
Gel Analysis of TGT reactions with PreQ1 analogs. […] After the reactions were complete, the RNA was precipitated by addition of 10% volume of 3M sodium acetate and 2.5 volumes 95% ethanol. The samples were then precipitated at −80° C. for 2 hours after which they were centrifuged at 16,100 g for 30 minutes at 4° C. The ethanol was carefully pipetted away and the RNA pellet was allowed to air dry for 10 minutes on the bench. The pellet was resuspended in 10 μL of 1X RNA loading dye (NEB, Ipswitch, Mass.), heated to 95° C. for 2 minutes, placed on ice for 20 minutes, and subsequently loaded into a freshly poured denaturing 4% polyacrylamide gel (4% polyacrylamide in 1X TBE buffer with 8% urea) and run at 120 V for approximately 2 hours until the xylene cyanol blue dye had reached the bottom of the gel. […]

[3] = biological target: T2, streptavidin M-280 DYNABEADS (Streptomyces avidinii, UniProt P22629); assay: DYNABEADS streptavidin pull-down of PreQ1-Biotin modified transcripts; format: binding; conditions: mCherry-TAG vs mCherry-TAGΔC after TGT labeling (FIGS. 3C and 10)
T2 construct: purchased Life Technologies M280
T2 sequence (P22629 25-183): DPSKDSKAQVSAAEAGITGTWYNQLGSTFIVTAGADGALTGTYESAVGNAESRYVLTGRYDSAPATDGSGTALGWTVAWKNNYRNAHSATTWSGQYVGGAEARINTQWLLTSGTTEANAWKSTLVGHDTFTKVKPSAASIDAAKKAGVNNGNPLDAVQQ
Experimental: DYNABEADS® Streptavidin pull-down of PreQ1-Biotin modified transcripts. mCherry-TAG and mCherry-TAGΔC transcripts was incubated in a mixture of 1 μM RNA, 100 μM preQ1-Biotin, and 1 μM TGT (omitted in control samples) in TGT reaction buffer at 37° C. for 4 hours. 1 unit of RNAseIn (Promega, Madison, Wis.) was added to the reaction to prevent transcript degradation. Samples were drop dialyzed through 0.02 μm MF-Millipore membrane filter (Millipore, Billerica, Mass.) using 25 mL Milli-Q water and subsequently ethanol precipitated by addition of 10% volume of 3M sodium acetate and 2.5 volumes 95% ethanol and incubation at […] overnight. After centrifugation at 4° C. (16,100 g, 30 min), the resulting RNA pellet was resuspended in water, and the concentration of RNA was quantified.
Streptavidin M280 DYNABEADS® (Life Technologies, Carlsbad, Calif.) were washed according to manufacturer's instructions for RNA applications using binding and washing (B&W) buffer. Beads were blocked in B&W buffer with yeast tRNA (0.1 mg/100 uL of beads). Following the blocking step, beads were washed twice with B&W buffer. Pull down was then performed by incubation of 1 μg of prepared RNA with 10 uL of washed beads in B&W buffer at room temperature for 30 minutes with constant rotation. The beads were then washed three times with B&W buffer. […] Samples were then analyzed by 4% denaturing PAGE.

[4] = biological target: T3, streptavidin (Streptomyces avidinii, UniProt P22629); assay: Streptavidin gel shift of RNA hairpins modified with PreQ1-Biotin; format: binding; conditions: ECY-A1 vs ECY-A1ΔC, with and without TGT; 15% denaturing PAGE (FIG. 2C)
T3 construct: purchased Life Technologies
T3 sequence (P22629 25-183): as above
Experimental: Streptavidin gel shift of RNA hairpins. ECY-A1 RNA and ECY-A1ΔC was incubated in a mixture of 10 μM RNA, 100 μM preQ1-Biotin, and 1 μM TGT (omitted in control samples) in TGT reaction buffer at 37° C. for 24 hours. After the reactions were complete, the RNA was precipitated by addition of 10% volume of 3M sodium acetate and 2.5 volumes 95% ethanol and incubation at −20° C. overnight. After centrifugation at 4° C. (16,100 g, 30 min), the resulting RNA pellet was resuspended in water, and the concentration of RNA was quantified. The prepared RNA was then incubated in the presence of streptavidin (Life Technologies, Carlsbad, Calif.) at 37° C. for 1 hour in a mixture containing the following: 10 mM Tris (pH 8.1), 2.5 μM RNA, and 50 μM streptavidin. 1X RNA loading dye (NEB, Ipswitch, Mass.) was added to the sample (without heat denaturation) and samples were analyzed by 15% denaturing PAGE.

[5] = biological target: T1, bacterial (E.coli) tRNA guanine transglycosylase (TGT); assay: TGT-catalyzed incorporation of PreQ1 analogs into RNA oligonucleotide hairpins (LC / HRMS); format: biochemical
Experimental: General TGT reaction with RNA oligonucleotide hairpins TGT reaction conditions were adapted from a previously reported literature procedure.^1 An eppendorf tube containing 10 μM RNA oligonucleotide, 100 μM PreQ1 analog, and 10 μM TGT enzyme were prepared in a final volume of 50 μL of TGT reaction buffer. The reactions were incubated at 37° C. for a minimum of 2 hours. The reactions were halted by chilling samples to 4° C. or freezing at −80° C. until purified or analyzed.
Liquid chromatography and mass spectroscopy analysis of preQ1 modified RNA hairpins. Samples were first prepared according to the general procedure. Samples were allowed to react for 6 hours and frozen at −80° C. until analyzed (PreQ1-Biotin required 24 hours for completion). Samples were diluted 1:2 with milli-Q water and injected onto a clarity Oligo-MS column (Phenomenex, Torrance, Calif.) and analyzed by HPLC according to the following gradient: (A=Milli-Q water containing 20% hexafluoroisopropanol (HFIP) and 0.1% TEA, B=methanol), Initial conditions 95% A, 5% B, hold 2 min then a linear gradient starting at 2 min and ending at 10 min with 45% A, 55% B. Samples were monitored at 260 nm as well as either 505 nm or 700 nm as appropriate when fluorophore PreQ1 analogs were employed. HRMS samples were collected in negative ion mode and analyzed in a similar manner by combining the mass spectrum traces across the peak of interest. Raw mass spectrum were deconvoluted using MagTran software package v.

[6] = biological target: T1, bacterial (E.coli) tRNA guanine transglycosylase (TGT); assay: Fluorescence emission spectra of PreQ1-TO probe turn-on with mCherry-TAG RNA; format: biochemical
Experimental: Fluorescence emission spectra of PreQ1-TO probe turn-on with mCherry-TAG RNA. Fluorescence emission spectra were collected in a similar fashion to that described previously for the short RNA hairpins. 25 μL reactions were setup with 10 μM TGT enzyme, 20 μM PreQ1-TO, and 100 nM transcript RNA and incubated at 37° C. for 2 hours. Samples were then diluted 30-fold and measured under the same conditions and parameters as that of the short hairpins.

[7] = biological target: T1, bacterial (E.coli) tRNA guanine transglycosylase (TGT); assay: Fluorescence emission spectra of PreQ1-TO probe turn-on with ECY-A1 hairpin; format: biochemical; conditions: RNA hairpin ECY-A1; normalized to PreQ1-TO in the absence of RNA and TGT (FIG. 2B)
Experimental: Fluorescence emission spectra of PreQ1-TO probe turn-on with ECY-A1 hairpin. Samples of ECY-A1, ECY-A1ΔC, and ECY-X1 were first prepared in a similar fashion to the general protocol except only 20 μM PreQ1-TO was employed to avoid non-specific binding to the hairpins. Samples were allowed to react for 2 hours, verified to be at completion by HPLC, and diluted 30-fold into TGT reaction buffer. Spectra were then collected on a Fluoromax-P spectrophotometer by excitation at 501 nm and scanning emission from 510 to 600 nm with excitation and emission slit width at 5 nm and an integration time of 1 s. All spectra were background subtracted from TGT reaction buffer and Normalized against the fluorescence intensity values of a sample containing an analogous concentration of PreQ1-TO (0.667 μM) in TGT reaction buffer.

## CN1/C(=C/C=C2C=C(/C=C/C3=[N+](CCCCCC(=O)NCCOCCOCCOCCNCc4c[nH]c5nc(N)[nH]c(=O)c45)c4ccccc4C3(C)C)CCC/2)C(C)(C)c2ccccc21.O=C[O-] [PreQ1-Cy7]
[1]
  staining of fixed, permeabilized CHO cells: significantly greater staining of fixed cells
[2]
  fluorescent labeling of mCherry-TAG transcript: labeling of the transcript took place

## Nc1nc2[nH]cc(CNCCOCCOCCOCCNC(=O)CCCC[C@@H]3SC[C@@H]4NC(=O)N[C@@H]43)c2c(=O)[nH]1 [PreQ1-Biotin]
[3]
  RNA recovered in streptavidin pull-down: single RNA band corresponding to transcript only when mCherry transcript contained the ECY-A 1 hairpin
[4]
  streptavidin gel shift of ECY-A1 modified by TGT: biotin remains functional as an affinity tag
[5]; 37° C., other analogs 6 hour incubation
  reaction time required for completion of TGT labeling of ECY-A1: 24 h

## CN1/C(=C/c2cc[n+](CCCCCC(=O)NCCOCCOCCOCCNCc3c[nH]c4nc(N)[nH]c(=O)c34)c3ccccc23)Sc2ccccc21.O=C[O-] [PreQ1-TO]
[6]; TGT present vs absent (FIG. 3B)
  fluorescence intensity with in vitro transcribed mCherry-TAG RNA: significant increase in fluorescence intensity
[6]; in the presence of enzyme
  fluorescence turn-on with mCherry-TAGΔC transcript: negligible fluorescence turn-on
[5]; ECY-A1 compared with ECY-A1ΔC and ECY-X1 (FIG. 20B)
  RNA substrate selectivity of incorporation: selectively incorporated into ECY-A1
[5]; RNA hairpins ECY-A1ΔC and ECY-X1, with TGT, by LC/MS
  incorporation of PreQ1-TO into alternative RNA hairpins: unable to detect incorporation
[7]
  increase in TO fluorescence intensity upon covalent incorporation: ~40 fold
